Results reported in patent EP3046573B1, “AMYLIN ANALOGUES” (Zealand Pharma A/S, priority 2013, dated 2015).
Numbered stars: 1 amine (or outer) side, 2 acyl side, 3 side chain; on linkers, the order of the positions; unused ones are H or OH. Bridge positions count the residues as written; N and C are the ends. Square brackets hold non-standard residues; d marks the D form. Peptide text beside a SMILES is read from it. * marks the point of attachment. C20 diacid = O=C(O)CCCCCCCCCCCCCCCCCCC(=O)*; γGlu = O=C(O)[C@H](CCC(=O)[*:2])N[*:1]; NMeI = CC[C@H](C)[C@H](NC)C(=O)O; Sar = CNCC(=O)O

Experiments:
Male Sprague Dawley rats [1] = assay: Efficacy testing: development of obesity in rats fed on a high-fat diet (HFD); assay type: in vivo
Procedure: (§1) Whole-blood glucose levels were determined on tail-vein blood samples by the Biosen (EKF Diagnostic, Germany) enzyme-based electrode method. Blood samples were analyzed for glycated hemoglobin (HbA1c) using a Cobas c111 analyzer (Roche Diagnostics, Mannheim, Germany). Plasma insulin levels were measured using a Meso Scale Discovery (MSD) system (Rockville, MD, USA). Liver fat content was determined by magnetic resonance (MR) scanning using an Echo systems MR scanner. Fat depots were measured by weighing of excised fat.
(§2) Male Sprague Dawley rats obtained from Taconic A/S, Denmark, were used in this study. The animals arrived at least 7 days before the study start to allow acclimatization to experimental conditions. From arrival and throughout the study, the rats were housed in groups of 2 (n = 2) in a light-, temperature- and humidity-controlled room (reversed 12/12 h light/dark cycle: lights turned off during day-time and on during night-time; temperature 20-22°C; relative humidity 50-80%) and maintained on a HFD (60% of total energy from fat, D12492, Research Diet Inc., New Brunswick, USA) for 2 weeks. Animals had access ad libitum to water (domestic quality tap water with citric acid added to pH ∼ 3.6) during the entire study.The rats were stratified according to body weight (primary) and % body weight gain from the beginning of feeding with HFD (secondary), and treated for 4 weeks with Compound 18 [1, 5 and 30 nmol/kg sc, once weekly (QW)] and Compound 18 (5 nmol/kg sc, every 4th day), and with comparison/reference compounds NN96 (a pramlintide analogue, see Example 5; 30 nmol/kg sc, QW) and the marketed human GLP-1 receptor agonist liraglutide [50 nmol/kg sc, twice daily (bid)], respectively.
(§3) Post-hoc Dunnett's multiple comparison tests were conducted. When appropriate, the two-way ANOVA test was used followed by Bonferroni post tests; p < 0.05 was in all cases considered statistically significant.
(§4) The preventive effects of Compound 18 of the present invention on the development of obesity were investigated by measurement of body weight, food intake, water intake, blood glucose levels, plasma insulin levels, liver fat mass and fat depots.

Male Sprague Dawley rats [2] = assay: Efficacy testing: food preference (FP) and development of obesity in rats fed on a high-fat diet (HFD); assay type: in vivo; conditions: rats self-selecting LFD/HFD, 30 nmol/kg sc, QW, 4 weeks
Procedure: as §1
(§5) Male Sprague Dawley rats obtained from Taconic A/S, Denmark, were used in this study. The animals arrived at least 7 days before the study start to allow acclimatization to experimental conditions. From arrival and throughout the study, the rats were housed in groups of 2 (n = 2) in a light-, temperature- and humidity-controlled room (reversed 12/12 h light/dark cycle: lights turned off during day-time and on during night-time; temperature 20-22°C; relative humidity 50-80%) and maintained on a HFD (60% of total energy from fat, D12492, Research Diet Inc., New Brunswick, USA) for 2 weeks. Animals had access ad libitum to water (domestic quality tap water with citric acid added to pH ∼ 3.6) during the entire study. The rats were stratified according to body weight (primary) and % body weight gain from the beginning of feeding with HFD (secondary). Three days before the initiation of treatment the rats were allowed to self-select between a low-fat diet (LFD, standard chow, 11 % of total energy from fat, Atromin™ 1324, Brogaarden A/S, Gentofte, Denmark) and a high-fat diet, and they remained on the self-selected regimen for the duration of the study. Rats were treated for four weeks with Compound 18 [30 nmol/kg sc, once weekly (QW)] or vehicle.
Statistical analyses were performed using GraphPad™ Prism version 5.
The efficacy of Compound 18 in relation to change in food preference and in relation to the development of obesity were investigated by measurement of food preference, body weight, food intake, water intake, blood glucose levels, plasma insulin levels, mass of liver fat and mass of fat depots.

HFD-fed rats = assay: Development of obesity in rats fed on a high-fat diet (HFD); assay type: in vivo, Male Sprague Dawley rats
Procedure: as §1, §2, §3, §4

[3] = system: rats self-selecting between a low-fat diet and a high-fat diet; assay: Food preference (FP) and development of obesity in rats fed on a high-fat diet (HFD); assay type: in vivo, Male Sprague Dawley rats; conditions: 30 nmol/kg sc, QW, 4 weeks
Procedure: as §1, §5
Statistical analyses were performed using GraphPad™ Prism version 5. […]

[4] = system: male Zucker diabetic fatty (ZDF) rats; assay: Efficacy testing: glycemic control in Zucker diabetic fatty rats; assay type: in vivo; conditions: for terminal HbA1c levels: 4 weeks, vehicle 8.7 ± 0.2; for non-fasting blood glucose levels on day 13 and on day 27: compared to the vehicle treated rats, P < 0.001; for fasting blood glucose levels: terminal, Compound 82 3, 30, and 100 nmol/kg, Compound 18 30 nmol/kg, P < 0.001 vs. vehicle
Procedure: as §1
84 male Zucker diabetic fatty (ZDF) rats (9-10 weeks of age) were used in this study. The animals were housed in groups of n = 2. Stratification of the animals was based on non-fasting blood glucose (primary), changes in non-fasting blood glucose measured from the arrival of the animals until one week before the initiation of the study (secondary) and body weight (tertiary). The animals were further divided into two "teams" with a pair-fed group (group 2) allocated to team 2. Animals from group 2 were pair-fed in order to compare between the contribution made by reduced food intake and by drug-induced effects on glycemic control. The amount of food eaten by the animals treated with Compound 82 (30 nmol/kg, team 1) each day was determined, and the same amount was given to a vehicle-treated pair-fed group of animals the following day.
Rats were treated for 4 weeks with Compound 82 (3, 30 and 100 nmol/kg, sc, every (ev.) 5th day), Compound 18 (30 nmol/kg sc, every 5th day), or the GLP-1 analogue liraglutide (40 nmol/kg sc, twice daily (bid)).
The effects of the compounds on glycemic control were investigated by measurement of non-fasting and fasting blood glucose levels and HbA1c levels.
Statistical analyses were performed using GraphPad™ Prism version 5. The measured parameters were compared using one- way ANOVA followed by Dunnett's multiple comparison test. Comparison between the pair-fed vehicle-treated group and the Compound 82 (30 nmol/kg) group was done using Student's two-tailed and unpaired t-test. Differences were considered statistically significant at p < 0.05.

In the case of `CC[C@H](C)[C@@H](C(=O)N[C@@H](CC(C)C)C(=O)N[C@@H](CO)C(=O)N[C@@H](CO)C(=O)N[C@H](C(=O)N[C@@H](CC(N)=O)C(=O)N[C@H](C(=O)NCC(=O)N[C@@H](CO)C(=O)N[C@@H](CC(N)=O)C(=O)N[C@H](C(=O)N1CCC[C@H]1C(N)=O)[C@@H](C)O)C(C)C)[C@@H](C)O)N(C)C(=O)[C@H](C)NC(=O)CN(C)C(=O)[C@H](Cc1ccccc1)NC(=O)[C@H](CC(N)=O)NC(=O)[C@H](CC(N)=O)NC(=O)[C@H](CO)NC(=O)[C@H](CO)NC(=O)[C@H](CCCNC(=N)N)NC(=O)[C@H](Cc1c[nH]cn1)NC(=O)[C@H](CC(C)C)NC(=O)[C@H](Cc1ccccc1)NC(=O)[C@H](CCC(=O)O)NC(=O)[C@H](C)NC(=O)[C@H](CC(C)C)NC(=O)[C@H](CCCNC(=N)N)NC(=O)[C@H](CCC(N)=O)NC(=O)[C@@H](NC(=O)[C@H](C)NC(=O)[C@@H]1CSSC[C@H](NC(=O)[C@H](CCCNC(=N)N)NC(=O)CC[C@H](NC(=O)CCCCCCCCCCCCCCCCCCC(=O)O)C(=O)O)C(=O)N[C@@H](CC(N)=O)C(=O)N[C@@H]([C@@H](C)O)C(=O)N[C@@H](C)C(=O)N[C@@H]([C@@H](C)O)C(=O)N1)[C@@H](C)O` [Compound 18, [19CD]-isoGlu-RC()NTATC()ATQRLAEFLHRSSNNF-Gly(Me)-A-Ile(Me)-LSSTNVGSNTP-NH2] ({C20 diacid-γGlu}-RCNTATCATQRLAEFLHRSSNNF[Sar]A[NMeI]LSSTNVGSNTP-NH2; disulfide 2-7), the “mass of fat depots” value (Male Sprague Dawley rats [1]; 4 weeks treatment) is reported as “decrease”, the food intake (Male Sprague Dawley rats [1]; 4 weeks treatment, vs. vehicle) is reported as “significantly decreased” and the “terminal liver fat mass” value (Male Sprague Dawley rats [1]; 5 and 30 nmol/kg, QW, 4 weeks) is reported as “decrease”. The “reduction in body weight gain at the end of the study” value (Male Sprague Dawley rats [1]; high-dose group (30 nmol/kg sc, QW), 4 weeks) was 26%, the body weight gain (Male Sprague Dawley rats [2]) was “reduction” and the “caloric intake deriving from LFD” value (Male Sprague Dawley rats [2]) was “significant increase”. The “terminal blood glucose levels” value (Male Sprague Dawley rats [2]) was “unaffected”, the “total caloric intake combined from both diets” value (Male Sprague Dawley rats [2]) was “decrease” and the “anti-obesity effects with administration every 4th day” value (HFD-fed rats; 5 nmol/kg sc, every 4th day, 4 weeks) was “effects similar to those of Compound 18 dosed QW”. For the same compound, the “mass of fat depots” value (HFD-fed rats; 4 weeks treatment) was “a decrease in mass of fat depots”, the food intake (HFD-fed rats; 4 weeks treatment, vs. vehicle) was “significantly decreased food intake” and the “terminal liver fat mass” value (HFD-fed rats; 5 and 30 nmol/kg, QW, 4 weeks) was “a decrease in terminal liver fat mass”. The “caloric intake deriving from LFD” value [3] was “significant increase in caloric intake deriving from LFD”, the body weight gain ([3]; rats self-selecting LFD/HFD) was “reduction of body weight gain” and the “total caloric intake combined from both diets” value ([3]; rats self-selecting LFD/HFD) was “a decrease in the total caloric intake”. For the same compound, the “terminal HbA1c levels” value ([4]; 30 nmol/kg sc every 5th day) was 5.4 ± 0.1%, the “non-fasting blood glucose levels on day 13 and on day 27” value [4] was “significantly lower” and the “fasting blood glucose levels” value [4] was “significantly decreased”.
With `CC[C@H](C)[C@@H](C(=O)N[C@@H](CC(C)C)C(=O)N[C@@H](CO)C(=O)N[C@@H](CO)C(=O)N[C@H](C(=O)N[C@@H](CCC(=O)O)C(=O)N[C@H](C(=O)NCC(=O)N[C@@H](CO)C(=O)N[C@@H](CCC(=O)O)C(=O)N[C@H](C(=O)N1CCC[C@H]1C(N)=O)[C@@H](C)O)C(C)C)[C@@H](C)O)N(C)C(=O)[C@H](C)NC(=O)CN(C)C(=O)[C@H](Cc1ccccc1)NC(=O)[C@H](CO)NC(=O)[C@H](CO)NC(=O)[C@H](CCCNC(=N)N)NC(=O)[C@H](Cc1c[nH]cn1)NC(=O)[C@H](CC(C)C)NC(=O)[C@H](Cc1ccccc1)NC(=O)[C@H](CCC(=O)O)NC(=O)[C@H](C)NC(=O)[C@H](CC(C)C)NC(=O)[C@H](CCCNC(=N)N)NC(=O)[C@H](CCC(N)=O)NC(=O)[C@@H](NC(=O)[C@H](C)NC(=O)[C@@H]1CSSC[C@H](NC(=O)[C@H](CCCNC(=N)N)NC(=O)CC[C@H](NC(=O)CCCCCCCCCCCCCCCCCCC(=O)O)C(=O)O)C(=O)N[C@@H](CC(N)=O)C(=O)N[C@@H]([C@@H](C)O)C(=O)N[C@@H](C)C(=O)N[C@@H]([C@@H](C)O)C(=O)N1)[C@@H](C)O` [Compound 82, [19CD]-isoGlu-RC()NTATC()ATQRLAEFLHRSSF-Gly(Me)-A-Ile(Me)-LSSTEVGSETP-NH2] ({C20 diacid-γGlu}-RCNTATCATQRLAEFLHRSSF[Sar]A[NMeI]LSSTEVGSETP-NH2; disulfide 2-7) the “terminal HbA1c levels” value ([4]; 3 nmol/kg sc every 5th day) was 5.6 ± 0.2%, the “terminal HbA1c levels” value ([4]; 30 nmol/kg sc every 5th day) was 5.4 ± 0.1% and the “HbA1c levels compared to the pair-fed group” value ([4]; 30 nmol/kg, P < 0.05) was “significant reductions”. The “terminal HbA1c levels” value ([4]; 100 nmol/kg sc every 5th day) was 5.4 ± 0.1%, the “non-fasting blood glucose levels on day 13 and on day 27” value [4] was “significantly lower” and the “fasting blood glucose levels” value [4] was “significantly decreased”.
